# Reference: patent US5955423A (priority 1995, dated 1999)
# Experiments:
# [1] = tested on: A-10 rat aortic smooth muscle cells; type: cell-based; conditions: A-10 cells
# Procedure: A-10 cells were grown to near-confluency on glass coverslips in BME/10% FBS. Compounds in PBS were added to the indicated final concentrations and cells were incubated for an additional 24 hours. For the staining of microtubules and intermediate filaments, the cells were fixed with cold methanol and incubated with PBS containing 10% calf serum to block nonspecific binding sites. Cells were then incubated at 37° C. for 60 min with either monoclonal anti-p-tubulin or with monoclonal anti-vimentin at dilutions recommended by the manufacturer. Bound primary antibodies were subsequently visualized by a 45-minute incubation with fluorescein-conjugated rabbit antimouse IgG. The coverslips were mounted on microscope slides and the fluorescence patterns were examined and photographed using a Zeiss Photomicroscope Ill equipped with epifluorescence optics for fluorescein. […] PBS containing 100 nM TRITC-phalloidin was then added and the mixture was allowed to incubate for 45 min at 37° C. The cells were washed rapidly three times with PBS before the coverslips were mounted and immediately photographed as described above.
# After 24 hours, microtubules and vimentin intermediate filaments were visualized by indirect immunofluorescence and microfilaments were stained using TRITC-phalloidin. The morphological effects of each drug were examined.
# After 24 hours, microtubule organization was examined by immunofluorescence as described above.
# The cells were then washed and incubated in drug-free medium for periods of 1 hour or 24 hours.
# [2] = tested on: SKOV3 cells (human ovarian carcinoma); test: Cell proliferation assay (SRB staining), SKOV3 cells; type: cell-based; conditions: SKOV3 cells treated 24 hours with IC50 doses, then drug-free medium
# [3] = tested on: SKOV3 (human ovarian carcinoma) cell line; test: Cytotoxicity against SKOV3 cell line; conditions: Table 2
# [4] = tested on: Human Sm Cell L. DMS273 SCID; test: In vivo activity, SC DMS273 tumor; conditions: Exp # 1596, 6 inj. IV, total dose 7.3 mg/kg
# Procedure: (§1) Gross log kill is defined as T-C/3.2 Td where T is the median time in days for the tumors of the treated group to reach 750 mg, C is the median time in days for the tumors of the control group to reach 750 mg, and Td is the tumor volume doubling time.
# [5] = tested on: Mam 16/Taxol (taxol-resistant mammary #16/C/RP); test: In vivo activity, SC Mam 16/Taxol tumor; conditions: Exp # 1733, 5 inj. IV, total dose 16.5 mg/kg
# Procedure: as §1
# M17/0 (Adr. Sens.) = test: In vivo activity, SC M17/0 tumor; conditions: Exp # 1833; SC M17/0 (Adr. Sens.); 5 inj. IV; total dose 5.4 mg/kg
# Procedure: as §1
# MX-1 Human Breast = test: In vivo activity, SC MX-1 tumor; conditions: Exp # 1806; SC MX-1 Human Breast, SCID mice; 8 inj. IV; total dose 12 mg/kg
# Procedure: as §1
# [6] = tested on: murine leukemia (L1210 or P388), murine solid tumor, human solid tumor and low malignancy fibroblast (LML) cells; conditions: for Differential in Zone Units, Corbett Assay: μg/disk as for E3; for Type of Cytotoxicity, Corbett Assay: μg/disk: 1 12.5, 2 25, 3 25, 4 20, 5 2.9, 6 250, 8 30, 5-FU 2.5, VP-16 5, taxol 0.2, ^c selective against drug-sensitive and drug-resistant cell lines, ^d drug-sensitive cell lines only
# [7] = tested on: murine and human tumors implanted in mice
# Procedure: as §1
# strains of Cryptococcus = conditions: found by researchers at Merck; cited from earlier work
# [8] = tested on: Colon 51 (colon adenocarcinoma #51); test: In vivo activity, SC Colon 51 tumor; conditions: Exp # 1636, 7 inj. IV, total dose 28.1 mg/kg
# Procedure: as §1
# H125 Human Adenosq-lung = conditions: Exp # 1823; SC H125 Human Adenosq-lung, SCID mice; 8 inj. IV; total dose 14.4 mg/kg
# Procedure: as §1
# [9] = tested on: LoVo (human colon-carcinoma) cell line; test: Cytotoxicity against LoVo cell line; type: cell-based
# LNCaP Human Prostate = test: In vivo activity, SC LNCaP tumor; conditions: Exp # 1841, 6 inj. IV, total dose 6.5 mg/kg
# Procedure: as §1
# [10] = tested on: Colon 38 (colon adenocarcinoma #38); conditions: Exp # 1560; SC Colon 38; 8 inj. IV; total dose 10.3 mg/kg
# Procedure: as §1
# [11] = tested on: KB (human nasopharyngeal carcinoma) cell line; test: Cytotoxicity against KB cell line; type: cell-based
# Mam 16/C (mammary #16/C) = test: In vivo activity, SC Mam 16/C tumor; conditions: Exp # 1720, 5 inj. IV, total dose 13.2 mg/kg
# Procedure: as §1
# [12] = 24 hours, 2 μM cytochalasin B, 100 nM vinblastine or 10 nM cryptophycin compounds
compound,measurement,setting,value
CC[C@]1(O)C[C@@H]2CN(CCc3c([nH]c4ccccc34)[C@@](C(=O)OC)(c3cc4c(cc3OC)N(C)[C@H]3[C@@](O)(C(=O)OC)[C@H](OC(C)=O)[C@]5(CC)C=CCN6CC[C@]43[C@@H]65)C2)C1 [vinblastine],reversibility of microtubule depolymerization after removal of drug,"[1]; 100 nM vinblastine or 10 nM cryptophycins for 24 hr, then drug-free medium 1 hour or 24 hours",complete morphological recovery by 24 hour
same,microtubule depolymerization after taxol pretreatment,"[1]; 3 hours 10 μM taxol, then 100 nM vinblastine or 10 nM cryptophycin compound, 24 hours",pretreatment with taxol prevented microtubule depolymerization in response to vinblastine
same,effect on microfilaments,[1]; [12],Neither compound affected microfilament organization
same,effect on vimentin intermediate filaments,[1]; [12],vimentin intermediate filaments collapsed
same,increase in cell number in the 24 hours following removal of the drug,[2],approximately 3 fold
COc1ccc(C[C@H]2NC(=O)/C=C/C[C@@H]([C@H](C)[C@H]3O[C@@H]3c3ccccc3)OC(=O)[C@H](CC(C)C)OC(=O)[C@H](C)CNC2=O)cc1Cl [Cryptophycin 1],SKOV3 IC50,[3],0.026 ng/mL
same,% Body Wt. Loss at Nadir,[4],0%
same,Cures,[4],0/5
same,Log Kill,[4],< 1
same,T/C,[4],27%
same,% Body Wt. Loss at Nadir,[5],0%
same,Log Kill,[5],1.8
same,T/C,[5],2%
same,% Body Wt. Loss at Nadir,M17/0 (Adr. Sens.),-10%
same,Log Kill,M17/0 (Adr. Sens.),< 1
same,T/C,M17/0 (Adr. Sens.),23%
same,% Body Wt. Loss at Nadir,MX-1 Human Breast,-3%
same,Cures,MX-1 Human Breast,0/5
same,Log Kill,MX-1 Human Breast,2.0
same,T/C,MX-1 Human Breast,3%
same,"Differential in Zone Units, Corbett Assay",[6],> 400 Zone Units
same,"Type of Cytotoxicity, Corbett Assay",[6],E/T
same,tumor burden T/C,"[7]; five early stage murine tumors (colon #38, #51, taxol-sensitive and taxol-resistant mammary #16/C/RP, pancreatic #03) and MX-1 breast, H125 lung in SCID mice",less than 10%
same,lethal toxicity observed during testing,[7]; in vivo testing,attributed to leucopenia
same,activity against strains of Cryptococcus,strains of Cryptococcus,very active against strains of Cryptococcus
same,% Body Wt. Loss at Nadir,[8],-11%
same,Log Kill,[8],1.3
same,T/C,[8],7%
same,% Body Wt. Loss at Nadir,H125 Human Adenosq-lung,-15%
same,Cures,H125 Human Adenosq-lung,0/5
same,Log Kill,H125 Human Adenosq-lung,1.1
same,T/C,H125 Human Adenosq-lung,9%
same,dead,H125 Human Adenosq-lung,1/5
same,LoVo IC50,[9]; Table 1,0.003 ng/mL
same,LoVo IC50,[9]; Table 2,0.001 ng/mL
same,% Body Wt. Loss at Nadir,LNCaP Human Prostate,-6%
same,T/C,LNCaP Human Prostate,26%
same,Cures,[10],0/5
same,Log Kill,[10],1.5
same,T/C,[10],6%
same,KB IC50,[11]; Table 1,0.005 ng/mL
same,KB IC50,[11]; Table 2,0.0025 ng/mL
same,% Body Wt. Loss at Nadir,Mam 16/C (mammary #16/C),-1%
same,Cures,Mam 16/C (mammary #16/C),0/5
same,Log Kill,Mam 16/C (mammary #16/C),1.4
same,T/C,Mam 16/C (mammary #16/C),5%
"C=C1[C@@H](C)[C@H]2[C@H](Cc3ccccc3)NC(=O)[C@]23OC(=O)/C=C/[C@H](O)CCC[C@@H](C)C/C=C/[C@H]3[C@@H]1O [Cytochalasin B, cytochalasin B]",effect on microtubules,[1]; [12],did not affect the distribution of either microtubules or intermediate filaments
same,effect on vimentin intermediate filaments,[1]; [12],did not affect the distribution of either microtubules or intermediate filaments
"CC(=O)O[C@H]1C(=O)[C@@]2(C)[C@H]([C@H](OC(=O)c3ccccc3)[C@]3(O)C[C@H](OC(=O)[C@H](O)[C@@H](NC(=O)c4ccccc4)c4ccccc4)C(C)=C1C3(C)C)[C@]1(OC(C)=O)CO[C@@H]1C[C@@H]2O [taxol, reference compound]","Differential in Zone Units, Corbett Assay",[6],≥ 400 Zone Units
same,"Type of Cytotoxicity, Corbett Assay",[6],M/H/T
same,increase in cell number in the 24 hours following removal of the drug,[2],0.2- to 0.4 fold
